Experimental data taken from patent EP0540099A1, “Water soluble camptothecin derivatives” (priority 1991, dated 1993).

System: HT-29 human colon tumor cells
Test: Human colorectal adenocarcinoma HT-29 xenograft in vivo assay
Conditions: female NU/NU mice; for in vivo Antitumor activity (tumor wt day-50/tumor wt day-14): HT-29 s.c. xenograft, optimal dose, subcutaneously twice a week for 5 weeks from day 14; for effect on tumor (stasis or regression): HT-29 xenograft, after 5 weeks of treatment (day 50), ratio of 1 = stasis, less than 1 = regression
Protocol: Female NU/NU mice weighing 21 ± 2g, are used for this modified version of the test described by B.C. Giovanella, et al., Science, 246 1046 (1989). Control and test animals are injected subcutaneously in the sub-scapular region with a suspension of 10⁶ viable HT-29 human colon tumor cells on day 0. Tumors are allowed to grow for 2 weeks prior to drug administration. For each drug, several doses are chosen based on its in vitro activity against topoisomerase I. Each dose level group contains 8 animals. The test compounds are prepared in either 0.1 M acetate buffer, pH 5 (vehicle "a") or 87.5% phosphate buffered saline, 12.375% dimethylsulfoxide, and 0.125% Tween 80 (trademark of ICI America for polyoxyethylenesorbitan monooleate) (vehicle "b") and are administered subcutaneously twice a week for 5 weeks beginning on day 14. Doses are given on a mg/kg basis according to the mean body weight for each cage.
Tumor weight is calculated from two perpendicular caliper measurements of the tumor using the formula, tumor weight = length x width² ÷ 2 [formula] in millimeters. For each animal, tumor weight is monitored over the course of the experiment. For each group, the results are expressed as the ratio of the mean tumor weight immediately after 5 weeks of treatment (day 50) divided by the mean tumor weight immediately before treatment (day 14). […] The criterion for antitumor activity is at least 50% inhibition of tumor growth after 5 weeks of dosing (day 50), giving a ratio of less than or equal to ten. TABLE B

[1] = vehicle b: 87.5% phosphate buffered saline, 12.375% dimethylsulfoxide, 0.125% Tween 80
[2] = vehicle a: 0.1 M acetate buffer, pH 5

SMILES | in vivo Antitumor activity (tumor wt day-50/tumor wt day-14) [1] | effect on tumor (stasis or regression) | in vivo Antitumor activity (tumor wt day-50/tumor wt day-14) [2]
CC[C@@]1(O)C(=O)OCc2c1cc1n(c2=O)Cc2c-1nc1cc3c(cc1c2CN(C)C)OCO3 [Example 2, 7-Dimethylaminomethylene-10, 11-methylenedioxy-20(S)-camptothecin] | 1.8^b |  | 
CC[C@@]1(O)C(=O)OCc2c1cc1n(c2=O)Cc2c-1nc1cc3c(cc1c2CN(C)C)OCCO3 [Example 4, 7-Dimethylaminomethylene-10, 11-ethylenedioxy-20(S)-camptothecin] |  | tumor stasis | 
CC[C@@]1(O)C(=O)OCc2c1cc1n(c2=O)Cc2c-1nc1cc3c(cc1c2CN1CCOCC1)OCCO3 [Example 6, 7-Morpholinomethylene-10, 11-ethylenedioxy-20(S)-camptothecin] | 1.0^b | tumor stasis | 
CC[C@@]1(O)C(=O)OCc2c1cc1n(c2=O)Cc2c-1nc1cc3c(cc1c2CN1CCN(C)CC1)OCCO3 [Example 11, 7-(4-methylpiperazinomethylene)-10, 11-ethylenedioxy-20(S)-camptothecin] |  | tumor regression | 0.6^a
CCN(CC)Cc1c2c(nc3cc4c(cc13)OCCO4)-c1cc3c(c(=O)n1C2)COC(=O)[C@]3(O)CC [Example 14, 7-Diethylaminomethylene-10, 11-ethylenedioxy-20(S)-camptothecin] |  |  | 2.0^a
CC[C@@]1(O)C(=O)OCc2c1cc1n(c2=O)Cc2c-1nc1cc3c(cc1c2CN1CCC1)OCO3 [Example 20, 7-Azetidinomethylene-10, 11-methylenedioxy-20(S)-camptothecin] |  |  | 1.5^a
CC[C@@]1(O)C(=O)OCc2c1cc1n(c2=O)Cc2c-1nc1cc3c(cc1c2CN1CCC1)OCCO3 [Example 22, 7-Azetidinomethylene-10, 11-ethylenedioxy-20(S)-camptothecin] |  |  | 1.6^a
CC[C@@]1(O)C(=O)OCc2c1cc1n(c2=O)Cc2c-1nc1cc3c(cc1c2CN1CCN(C)CC1)OCO3 [Example 23, 7-(4-Methylpiperazinomethylene)-10, 11-methylenedioxy-20(S)-camptothecin] |  | tumor regression | 0.5^a
